Test [1] addresses Amyloid β 1–40 H13A. The test can be described thus: SPR; preformed fibrils immobilised on a CM5 chip by amine coupling (3500 RU), probed with monomers of the same variant; monomer onto fibril end; 25 °C, 20 μL/min, 20 mM acetate pH 5.5, 150 mM NaCl; slow phase of dissociation only; KD = RD/RA x KD of Aβ1-40 wt (1 nM, from earlier work).
In test [2] the target is Amyloid β 1–40 H13A. The test can be described thus: SPR; preformed fibrils immobilised on a CM5 chip by amine coupling (3500 RU), probed with monomers of the same variant; monomer onto fibril end; 25 °C, 20 μL/min, 20 mM phosphate pH 7.4, 150 mM NaCl; slow phase of dissociation only; KD = RD/RA x KD of Aβ1-40 wt (100 nM, from earlier work). Background: SPR reads the build-up and loss of mass on a sensor chip optically.

Test [3] has as its system corresponding immobilised fibrils (fibrillar form of Aβ). Briefly: SPR dissociation rate k(off) of Aβ fibrils, slow phase, relative to Aβ1–40 wt. The settings on record: for RD, relative dissociation (k(off) versus Aβ1–40 wt): 150 mM NaCl, 25 °C, after 2 μM monomer injection, slow phase, points before 100 s excluded, one exponential decay, Aβ1–40 wt = 1. The class given is binding. The method, then:
(§1) Recombinant variants of Aβ1–40, Aβ1–40 H6A, Aβ1–40 H13A, Aβ1–40 H14A and Aβ1–40 H6A, H13A, H14A were obtained from AlexoTech (Umeå, Sweden). All lyophilised peptides were solubilised in 20 mM NaOH and separated by size‐exclusion chromatography (Superdex 10/300, GE Life Science, Uppsala, Sweden) in PBS with 2 mM EDTA, 5 mM NaOH and 150 mM NaCl. The pH of all purified peptide solutions was adjusted using a stock solution of phosphate or acetate buffer to give a final buffer concentration corresponding to 20 mM phosphate (pH 7.4) or acetate (pH 5.5) and 150 mM NaCl.
(§2) The interaction study between the fibrillar form of Aβ and its monomeric form was performed using a BIAcore® 3000 biosensor (GE Healthcare®, Uppsala, Sweden) equipped with a CM5 sensor chip (GE Healthcare®). First, the fibrillar form of Aβ was immobilised at a density of 3500 response units (RUs) on the dextran layer of the chip using standard amino coupling reagents at pH 4.0. All SPR experiments were performed at 25 °C at a flow rate of 20 μL·min^−1 in either a 20 mM phosphate buffer (pH 7.4) or 20 mM acetate buffer (pH 5.5). All experiments were performed in the presence of 150 mM NaCl, which represents a physiological ion‐strength.
(§3) All sensograms were corrected for nonspecific interactions using a reference surface according to standard procedures 16.
Note that the dissociation phase exposes a biphasic curvature. This is highly representative and frequently observed when performing these kinds of experiments. […] All analyses of decay rates within this work are therefore exclusively focused on the slower second phase of dissociation.
In contrast to the association rate, kon, the rate of dissociation, koff, is independent of the concentration of monomers. Subsequent to probing, the immobilised fibrils with free monomers, the rate of dissociation can be seen as a decrease in the signal over time.
Because the latter part of the curve, representing the slower phase of dissociation (indicated by arrow 3 Fig. 1), strongly dominates the interaction strength, we have exclusively focused on this part, and no points before 100 s were included in the curve. The dissociation curve could then be fitted to a one exponential decay.

Test [4] relates to immobilised Aβ fibrils / fibrillar end. Briefly: Fibril stability (KD, RD/RA, potentiation factor) from SPR association and dissociation. The class given is binding. The conditions noted are these: 25 °C, relative to Aβ1–40 wt. The method, then:
as §2, §3
While a simple interaction between, for example, a receptor and ligand can easily be determined through saturation experiments, this cannot be done with polymers since they, per definition, cannot be saturated.
This problem can, however, be circumvented by defining the concentration of free monomers where the fibrils are at steady state, i.e. the concentration of free monomers where neither association nor dissociation can be detected. We have previously shown that the KD for Aβ1–40 wt at neutral pH is around 100 nM and around 1 nM at pH 5.5 11, 13. The KD at neutral pH has also been investigated by Hasegawa and co‐workers 14 with similar results. All figures used here are therefore given as relative values to the KD for Aβ1–40 wt corresponding to 100 nM at neutral pH and 1 nM at pH 5.5.
Multiplying the relative RD/RA with the KD for Aβ 1–40 wt will then give the KD for the histidine derivatives.

Test [5] deals with immobilised Aβ fibrils / fibrillar end. The conditions noted are these: cited from earlier work. An excerpt: Table 1 Relative change of association and dissociation rates of Aβ1–40 wt and the His‐Ala Aβ variants, and the potentiation of Aβ fibril formation as a function of lowering the pH. RA, Relative association; RD, Relative dissociation; PnF, Potentiation factor KD(pH7.4)/KD(pH5.5) | column: pH 7.4 / KD (nM); pH 5.5 / KD (nM) || The formation of Aβ fibrils requires an initial nucleation event, and fibril elongation involves the addition of monomers to an existing fibril. […] The KD for Aβ1–40 can be as much as 120 times lower at pH 4.5 than pH 7.4. […] It is therefore of interest to elucidate the stabilising factors associated with fibril stability and the potentiating ... || (+ 3 further places)

In test [6] the test system is corresponding immobilised fibrils (fibrillar form of Aβ). Briefly: SPR association rate k(on) of Aβ monomers onto immobilised fibrils, relative to Aβ1–40 wt. The settings on record: for RA, relative association (k(on) versus Aβ1–40 wt): 150 mM NaCl, 25 °C, 20 μL·min^−1, CM5 chip, fibrils at 3500 RU, end state after 60 s injection, Aβ1–40 wt = 1. The class given is binding. The method, then:
as §1, §2
Due to the polymeric nature of amyloid fibrils, the covalent immobilisation on the sensor chip, likely only occurs in minor fraction of the accessible amino groups. This treatment is therefore not anticipated to influence the overall incorporation of monomers in a significant manner. However, the influence from using immobilised fibrils or the dextran layer cannot be fully excluded and should therefore be disclosed.
as §3
Probing free monomeric Aβ against immobilised fibrils using SPR is a frequently used technique for measuring the intrinsic kinetic properties of Aβ polymerisation 11, 14, 17, 18, 19.
Fibrils from recombinant variants of Aβ1–40, Aβ1–40 H6A, Aβ1–40 H13A, Aβ1–40 H14A and Aβ1–40 H6A, H13A, H14A were prepared by prolonged incubation in either PBS (pH 7.4) or acetate buffer pH 5.5 containing 150 mM NaCl. Fibrils immobilised on a CM5 chip were then probed with their monomeric counterpart at different concentrations of Aβ monomers and analysed by SPR. Samples were injected for exactly 60 s and the maximal value at the end state of each injection (indicated by arrow 1 in Fig. 1A) was plotted as a function of the monomeric concentration, Fig. 2. This generates an association rate at each point of measurement. A guideline is given in the figures to illustrate the linearity.
By comparing the rate between the different Aβ variants, it is possible to determine relative differences in k(on).

In test [7] the target is Amyloid β 1–40 H14A. The test can be described thus: SPR; preformed fibrils immobilised on a CM5 chip by amine coupling (3500 RU), probed with monomers of the same variant; monomer onto fibril end; 25 °C, 20 μL/min, 20 mM acetate pH 5.5, 150 mM NaCl; slow phase of dissociation only; KD = RD/RA x KD of Aβ1-40 wt (1 nM, from earlier work).
Test [8] has as its target Amyloid β 1–40 H14A. The test can be described thus: SPR; preformed fibrils immobilised on a CM5 chip by amine coupling (3500 RU), probed with monomers of the same variant; monomer onto fibril end; 25 °C, 20 μL/min, 20 mM phosphate pH 7.4, 150 mM NaCl; slow phase of dissociation only; KD = RD/RA x KD of Aβ1-40 wt (100 nM, from earlier work).
Test [9] has as its target Amyloid β 1–40 H6A, H13A, H14A. Briefly: SPR; preformed fibrils immobilised on a CM5 chip by amine coupling (3500 RU), probed with monomers of the same variant; monomer onto fibril end; 25 °C, 20 μL/min, 20 mM acetate pH 5.5, 150 mM NaCl; slow phase of dissociation only; KD = RD/RA x KD of Aβ1-40 wt (1 nM, from earlier work).
Test [10] deals with Amyloid β 1–40 H6A, H13A, H14A. Briefly: SPR; preformed fibrils immobilised on a CM5 chip by amine coupling (3500 RU), probed with monomers of the same variant; monomer onto fibril end; 25 °C, 20 μL/min, 20 mM phosphate pH 7.4, 150 mM NaCl; slow phase of dissociation only; KD = RD/RA x KD of Aβ1-40 wt (100 nM, from earlier work).

pKd: −log10 of the molar value. Several values for one entry are separate records, joined by “and”; a condition that tells them apart may be missing. Identical values can stand only once. Like-named read-outs stand apart in the source and are kept apart here.

Amyloid β 1–40 H13A (peptide): in the test with Amyloid β 1–40 H13A [1], the pKd was 8.68, the RA (association rate relative to Aβ1-40 wt) was 1.01 and the RD (dissociation rate relative to Aβ1-40 wt) worked out at 2.13. In the test with Amyloid β 1–40 H13A [2], the pKd was 6.15, the RA (association rate relative to Aβ1-40 wt) was 0.31 and the RD (dissociation rate relative to Aβ1-40 wt) came to 2.22.

“Aβ1–40 wt: wild‐type amyloid β 1–40, recombinant, obtained from AlexoTech (Umeå, Sweden) [reference compound]”: the “RD, relative dissociation (k(off) versus Aβ1–40 wt)” value (“RD, relative dissociation” for short) is 1 in test [3] (pH 5.5, 20 mM acetate) and 1 in [3] (pH 7.4, 20 mM phosphate). For the same substance, in [3] (pH 7.4 to 5.5), the “stabilisation / dissociation on lowering the pH, in words” value is “significantly stabilised by the decrease in pH”. Moreover, the RD/RA in [4] (pH 5.5, 150 mM NaCl) came out at 1; in test [4] (pH 7.4, 150 mM NaCl), 1. The pKd in test [5] (neutral pH (pH 7.4), reference value for the relative KDs, read-out: KD (critical concentration)) was ~7.00 and 7.00; in test [5] (neutral pH, read-out: critical concentration (KD)), roughly 7.00; in test [5] (pH 5.5, reference value for the relative KDs, read-out: KD), ~9.00 and 9.00. In addition, the “decrease of KD at pH 4.5 versus pH 7.4 (times lower)” value in [5] (pH 4.5 vs pH 7.4, "as much as") is recorded as no more than 120 times. In addition, the “RA, relative association (k(on) versus Aβ1–40 wt)” value (“RA, relative association” below) in test [6] (pH 5.5, 20 mM acetate) was 1; in test [6] (pH 7.4, 20 mM phosphate), 1. Besides, the “rate of association, in words” value in [6] (pH 5.5 versus pH 7.4) is listed as “much faster rate of association”.

With Aβ1–40 H14A, the “RD, relative dissociation” value in test [3] (pH 5.5, 20 mM acetate) amounted to 2.22; in [3] (pH 7.4, 20 mM phosphate) it was 2.70. Also, the RD/RA in test [4] (pH 7.4, 150 mM NaCl) was found to be 7.94. Also, the “RA, relative association” value in [6] (pH 5.5, 20 mM acetate) worked out at 1.01; in [6] (pH 7.4, 20 mM phosphate) it was 0.34.

Regarding “Aβ1–40 H6A, H13A, H14A: recombinant Aβ1–40 variant where all three histidines have been exchanged for alanine (DAEFRADSGYEVAAQKLVFFAEDVGSNKGAIIGLMVGGVV; Amyloid-beta protein 40; UniProt P05067 672-711, looked up, variant H6A H13A H14A)”, the “RD, relative dissociation” value in [3] (pH 5.5, 20 mM acetate) was 8.33; in [3] (pH 7.4, 20 mM phosphate) it was 2.70. The RD/RA is 5.31 in test [4] (pH 5.5, 150 mM NaCl) and 12.27 in test [4] (pH 7.4, 150 mM NaCl). The “RA, relative association” value turned out to be 1.57 in [6] (pH 5.5, 20 mM acetate) and 0.22 in test [6] (pH 7.4, 20 mM phosphate).

As to “Aβ1–42: one of the two dominant forms of amyloid β”, the “critical concentration (KD), in words” value in [5] (neutral pH, compared with Aβ1–40) is listed as “slightly lower”.

Aβ1–40 H13A: the “RD, relative dissociation” value in test [3] (pH 5.5, 20 mM acetate) was 2.13; in [3] (pH 7.4, 20 mM phosphate), 2.22. Also, the RD/RA in [4] (pH 5.5, 150 mM NaCl) is 2.11; in test [4] (pH 7.4, 150 mM NaCl), 7.16. The “RA, relative association” value came out at 1.01 in test [6] (pH 5.5, 20 mM acetate) and 0.31 in [6] (pH 7.4, 20 mM phosphate).

In the test with Amyloid β 1–40 H14A [7], Amyloid β 1–40 H14A (peptide) gave a pKd of 8.66, an RA (association rate relative to Aβ1-40 wt) of 1.01 and an RD (dissociation rate relative to Aβ1-40 wt) of 2.22. Further, in the test with Amyloid β 1–40 H14A [8], the pKd was 6.10, the RA (association rate relative to Aβ1-40 wt) came out at 0.34 and the RD (dissociation rate relative to Aβ1-40 wt) was 2.7.

On to Aβ1–40 H6A, for which the “RD, relative dissociation” value stood at 2.78 in [3] (pH 5.5, 20 mM acetate) and 1.92 in [3] (pH 7.4, 20 mM phosphate). Moreover, the RD/RA in test [4] (pH 5.5, 150 mM NaCl) was 1.43; in test [4] (pH 7.4, 150 mM NaCl), 4.27. Besides, the “RA, relative association” value in test [6] (pH 5.5, 20 mM acetate) was 1.94; in test [6] (pH 7.4, 20 mM phosphate), 0.45.

For the substance “Amyloid β 1–40 H6A, H13A, H14A (peptide)”, in test [9], the pKd is 8.27, the RA (association rate relative to Aβ1-40 wt) turned out to be 1.57 and the RD (dissociation rate relative to Aβ1-40 wt) came out at 8.33. In [10], this substance had a pKd of 5.91, an RA (association rate relative to Aβ1-40 wt) of 0.22 and an RD (dissociation rate relative to Aβ1-40 wt) of 2.7.

Source of the values: PMC5434815, “The role of histidines in amyloid β fibril assembly” (Febs Letters, 2017).
